Source: PubChem BioAssay (NCI)
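The compound was tested at five concentrations on cells cultured in 96-well plates, with a 48-hour exposure period. TGI: total growth inhibition.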

Tests used:
Assay in all cases: growth of human tumour cells (NCI), 48 h
A498 renal = system: A498 renal
CAKI-1 renal = system: CAKI-1 renal
HCT-15 colon = system: HCT-15 colon
HL-60(TB) leukemia = system: HL-60(TB) leukemia
HOP-92 NSCLC = system: HOP-92 NSCLC
HT29 colon = system: HT29 colon
KM12 colon = system: KM12 colon
MOLT-4 leukemia = system: MOLT-4 leukemia
NCI-H522 lung = system: NCI-H522 lung
OVCAR-3 ovarian = system: OVCAR-3 ovarian
OVCAR-4 ovarian = system: OVCAR-4 ovarian
OVCAR-8 ovarian = system: OVCAR-8 ovarian
SF-268 CNS = system: SF-268 CNS
SK-MEL-2 melanoma = system: SK-MEL-2 melanoma
SNB-19 CNS = system: SNB-19 CNS
SNB-75 CNS = system: SNB-75 CNS
U251 CNS = system: U251 CNS
UACC-62 melanoma = system: UACC-62 melanoma
UO-31 renal = system: UO-31 renal
ACHN renal = system: ACHN renal

| Compound | TGI (A498 renal) [µM] | TGI (CAKI-1 renal) [µM] | TGI (HCT-15 colon) [µM] | TGI (HL-60(TB) leukemia) [µM] | TGI (HOP-92 NSCLC) [µM] | TGI (HT29 colon) [µM] | TGI (KM12 colon) [µM] | TGI (MOLT-4 leukemia) [µM] | TGI (NCI-H522 lung) [µM] | TGI (OVCAR-3 ovarian) [µM] | TGI (OVCAR-4 ovarian) [µM] | TGI (OVCAR-8 ovarian) [µM] | TGI (SF-268 CNS) [µM] | TGI (SK-MEL-2 melanoma) [µM] | TGI (SNB-19 CNS) [µM] | TGI (SNB-75 CNS) [µM] | TGI (U251 CNS) [µM] | TGI (UACC-62 melanoma) [µM] | TGI (UO-31 renal) [µM] | TGI (ACHN renal) [µM] |
| --- | --- | --- | --- | --- | --- | --- | --- | --- | --- | --- | --- | --- | --- | --- | --- | --- | --- | --- | --- | --- |
| N#CC(OC1OC(COC2OC(CO)C(O)C(O)C2O)C(O)C(O)C1O)c1ccccc1 (stereo unspecified) | > 225 | > 225 | > 225 | > 225 | > 225 | > 225 | > 225 | > 225 | > 225 | > 225 | > 225 | > 225 | > 225 | > 225 | > 225 | > 225 | > 225 | > 225 | > 225 |  |
| CN1C(=O)CSC1=S | > 100 | > 100 | > 100 | > 100 | > 100 | > 100 | > 100 | > 100 | > 100 | > 100 | > 100 | > 100 | > 100 | > 100 |  | > 100 | > 100 | > 100 | > 100 | > 100 |
| C=CC1C(OC2OC(CO)C(O)C(O)C2O)OC=C(C(=O)OC)C1CC1CC(=O)CC(CCc2ccc(O)cc2)O1 (stereo unspecified) | > 100 | > 100 | > 100 | > 100 | > 100 | > 100 | > 100 | > 100 | > 100 | > 100 | > 100 | > 100 | > 100 | > 100 | > 100 | > 100 | > 100 | > 100 | > 100 | > 100 |
| O=C(c1ccccc1)c1c(-c2ccccc2)n(-c2ccccc2)[nH]c(=O)c1=O | > 100 | > 100 | > 100 | 85 | > 100 | > 100 | > 100 | > 100 | 38.3 | > 100 | > 100 | > 100 | > 100 | 65.7 | > 100 |  | > 100 | 75.5 | > 100 | > 100 |
| COc1ccc(/C(Cl)=C(\C=O)c2ccc(OC)c(OC)c2)cc1 | 98.8 | > 100 | > 100 | > 100 | 53.4 | > 100 |  | > 100 | 85.3 | > 100 |  | > 100 | > 100 | 76.6 | > 100 | 58.7 | > 100 | > 100 | > 100 | > 100 |
| COC(=O)c1ccccc1Nc1nc(-c2cccs2)nc2cc(OC)c(OC)cc12 | > 100 | > 100 | > 100 | > 100 | > 100 | > 100 | > 100 | > 100 | > 100 | 72.2 | > 100 | > 100 | > 100 | > 100 | > 100 | > 100 | > 100 | > 100 | > 100 | > 100 |
| O=C1NP23(OCCO2)Oc2ccccc2C3(C(F)(F)F)O1 (stereo unspecified) |  |  | > 100 | > 100 |  | > 100 | > 100 | > 100 | > 100 | > 100 | > 100 | > 100 | > 100 | > 100 | > 100 | > 100 | > 100 | > 100 |  | > 100 |
